Laboratory results from patent US20260102501A1, “ANTI-CANCER NUCLEAR HORMONE RECEPTOR-TARGETING COMPOUNDS” (Nuvation Bio Inc., priority 2022, published 2026).
Changes are numbered by the printed parent chain.

Assays:
[1] = test system: IEC6 cells; experiment: Cell viability assay (CellTiterGlo); settings: Rattus norvegicus, IEC-6, 144 h, read-out: IEC-6 (IC50, nM)
[2] = molecular target: T1, Progesterone Receptor (PR)-LBD and coactivator peptide (Homo sapiens, UniProt P06401); experiment: PR coactivator antagonist assay; settings: 2.5 nM PR-LBD, 10 nM progesterone-induced fluorescence response
T1 sequence (P06401 679-913 limits assumed): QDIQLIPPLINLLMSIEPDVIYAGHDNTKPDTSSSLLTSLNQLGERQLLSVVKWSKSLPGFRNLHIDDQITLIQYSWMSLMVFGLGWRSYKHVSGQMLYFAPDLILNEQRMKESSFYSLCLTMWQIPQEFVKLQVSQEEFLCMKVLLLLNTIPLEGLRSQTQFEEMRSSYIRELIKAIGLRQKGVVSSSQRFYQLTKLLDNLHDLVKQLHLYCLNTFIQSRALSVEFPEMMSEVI

[3] = test system: T47D cells; experiment: Cell viability assay (CellTiterGlo); type: cell-based; settings: Homo sapiens, 144 h, read-out: T47D (IC50, nM)
[4] = molecular target: T2, ligand binding domain of the glucocorticoid receptor (HEK293 cells stably expressing) (Homo sapiens, UniProt P04150); experiment: GR antagonism assay (luciferase reporter)
T2 sequence (P04150 524-758 limits assumed): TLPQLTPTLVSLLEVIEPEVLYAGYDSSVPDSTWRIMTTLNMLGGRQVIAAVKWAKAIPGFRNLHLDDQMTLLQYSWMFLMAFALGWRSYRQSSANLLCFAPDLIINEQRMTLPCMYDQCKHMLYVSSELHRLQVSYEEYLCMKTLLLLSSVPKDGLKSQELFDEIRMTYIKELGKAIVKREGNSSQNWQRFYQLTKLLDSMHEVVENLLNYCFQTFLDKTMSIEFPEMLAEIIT

[5] = molecular target: T3, Progesterone PR-B receptors from human breast carcinoma T47D cells (Homo sapiens, UniProt P06401); experiment: PR binding assay ([3H] Progesterone displacement)
T3 sequence (P06401 1-933): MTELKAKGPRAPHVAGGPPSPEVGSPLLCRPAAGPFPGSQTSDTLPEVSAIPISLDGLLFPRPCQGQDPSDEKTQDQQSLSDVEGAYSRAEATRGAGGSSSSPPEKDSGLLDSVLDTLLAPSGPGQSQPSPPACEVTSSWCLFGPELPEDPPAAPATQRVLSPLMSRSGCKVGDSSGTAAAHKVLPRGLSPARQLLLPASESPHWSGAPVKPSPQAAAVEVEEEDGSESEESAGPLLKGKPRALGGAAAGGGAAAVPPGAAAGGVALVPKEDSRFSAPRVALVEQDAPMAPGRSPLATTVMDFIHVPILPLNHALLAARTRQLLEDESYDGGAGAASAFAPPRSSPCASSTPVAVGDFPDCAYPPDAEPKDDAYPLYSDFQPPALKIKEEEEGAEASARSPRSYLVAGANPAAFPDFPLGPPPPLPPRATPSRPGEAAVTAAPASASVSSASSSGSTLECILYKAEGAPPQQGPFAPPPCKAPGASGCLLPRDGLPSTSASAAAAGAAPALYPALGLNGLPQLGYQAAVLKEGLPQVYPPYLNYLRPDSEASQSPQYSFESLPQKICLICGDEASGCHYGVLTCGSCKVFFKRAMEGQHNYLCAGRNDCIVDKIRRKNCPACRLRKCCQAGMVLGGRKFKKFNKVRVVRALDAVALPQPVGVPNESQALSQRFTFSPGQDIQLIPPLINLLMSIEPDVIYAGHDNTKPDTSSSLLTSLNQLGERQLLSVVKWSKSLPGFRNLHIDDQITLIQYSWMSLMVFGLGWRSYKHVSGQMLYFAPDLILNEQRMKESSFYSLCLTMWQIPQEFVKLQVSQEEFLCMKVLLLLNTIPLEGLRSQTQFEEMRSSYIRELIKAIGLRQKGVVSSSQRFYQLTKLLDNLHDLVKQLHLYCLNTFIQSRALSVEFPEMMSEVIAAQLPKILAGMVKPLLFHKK

[6] = molecular target: T4, GR (cytosol from IM-9 cells) (Homo sapiens, UniProt P04150); experiment: GR binding assay (3H-Dexamethasone displacement)
T4 sequence (P04150 1-777): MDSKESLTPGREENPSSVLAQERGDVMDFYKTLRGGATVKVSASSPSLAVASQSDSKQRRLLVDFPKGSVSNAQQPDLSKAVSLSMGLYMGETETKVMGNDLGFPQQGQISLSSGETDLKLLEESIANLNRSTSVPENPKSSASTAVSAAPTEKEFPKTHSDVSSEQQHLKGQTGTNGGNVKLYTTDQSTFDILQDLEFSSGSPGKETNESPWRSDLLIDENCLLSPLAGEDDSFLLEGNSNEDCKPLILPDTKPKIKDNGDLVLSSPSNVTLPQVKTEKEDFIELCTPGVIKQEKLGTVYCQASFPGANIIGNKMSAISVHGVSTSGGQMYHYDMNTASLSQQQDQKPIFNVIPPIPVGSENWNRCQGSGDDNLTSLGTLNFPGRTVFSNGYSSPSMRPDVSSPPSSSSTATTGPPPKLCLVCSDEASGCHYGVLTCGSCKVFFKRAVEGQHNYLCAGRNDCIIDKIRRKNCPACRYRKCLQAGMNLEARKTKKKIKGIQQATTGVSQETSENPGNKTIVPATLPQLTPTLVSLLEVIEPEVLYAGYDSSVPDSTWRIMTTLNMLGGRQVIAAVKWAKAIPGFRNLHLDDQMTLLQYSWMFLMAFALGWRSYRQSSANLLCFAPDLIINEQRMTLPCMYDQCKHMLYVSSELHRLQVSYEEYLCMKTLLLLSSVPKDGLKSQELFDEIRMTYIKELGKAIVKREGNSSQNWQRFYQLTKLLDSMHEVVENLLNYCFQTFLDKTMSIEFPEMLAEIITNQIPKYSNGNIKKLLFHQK

[7] = test system: LNCap cells; experiment: Cell viability assay (CellTiterGlo); type: cell-based; settings: Homo sapiens, 144 h, read-out: LNCap (IC50, nM)
[8] = molecular target: T5, AR (cytosol from LnCaP cells) (Homo sapiens, UniProt P10275, T878A); experiment: AR binding assay (3H-R1881 displacement)
T5 sequence (P10275 1-920 T878A): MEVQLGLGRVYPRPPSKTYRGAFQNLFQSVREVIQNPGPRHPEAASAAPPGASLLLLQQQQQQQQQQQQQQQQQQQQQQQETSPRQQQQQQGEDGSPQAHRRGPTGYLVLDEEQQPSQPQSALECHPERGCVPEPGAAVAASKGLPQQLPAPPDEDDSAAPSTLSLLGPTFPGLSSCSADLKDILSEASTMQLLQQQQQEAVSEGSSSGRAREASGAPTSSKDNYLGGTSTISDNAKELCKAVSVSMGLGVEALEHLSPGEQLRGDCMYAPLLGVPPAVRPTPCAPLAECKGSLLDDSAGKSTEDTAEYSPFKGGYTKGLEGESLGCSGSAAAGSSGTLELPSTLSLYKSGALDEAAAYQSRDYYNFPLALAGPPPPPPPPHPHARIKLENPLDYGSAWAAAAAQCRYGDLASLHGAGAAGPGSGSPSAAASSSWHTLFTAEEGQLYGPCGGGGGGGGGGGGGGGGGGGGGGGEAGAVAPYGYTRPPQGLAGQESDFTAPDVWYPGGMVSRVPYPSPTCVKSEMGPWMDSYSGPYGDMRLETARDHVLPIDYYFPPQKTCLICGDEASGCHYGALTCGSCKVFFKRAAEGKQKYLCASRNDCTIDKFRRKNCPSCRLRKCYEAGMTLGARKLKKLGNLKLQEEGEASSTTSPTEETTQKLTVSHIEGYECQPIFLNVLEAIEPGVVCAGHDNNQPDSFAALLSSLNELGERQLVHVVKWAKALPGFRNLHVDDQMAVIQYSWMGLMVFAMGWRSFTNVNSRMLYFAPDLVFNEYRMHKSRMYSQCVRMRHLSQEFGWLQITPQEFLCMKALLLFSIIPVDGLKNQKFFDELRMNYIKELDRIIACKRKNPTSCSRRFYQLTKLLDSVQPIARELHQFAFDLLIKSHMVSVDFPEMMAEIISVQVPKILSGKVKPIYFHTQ
Experimental: The plate was then centrifuged at 3000 rpm for 30 minutes at 4° C.

[9] = molecular target: T6, full-length androgen receptor (HEK293 cells stably expressing) (Homo sapiens, UniProt P10275); experiment: AR antagonism assay (luciferase reporter)
T6 sequence (P10275 1-920): T5 sequence (P10275 1-920 T878A) with A878T

[10] = test system: 22Rv1 cells; experiment: Cell viability assay (CellTiterGlo); settings: Homo sapiens, 22Rv1, 144 h, read-out: 22RV1 (IC50, nM)

Compound | IC50 [1] | PR antagonism [2] | IC50 [3] | IC50 [4] | IC50 [5] | IC50 [6] | IC50 [7] | IC50 [8] | IC50 [9] | IC50 [10]
CC[C@@]1(O)C(=O)OCc2c1cc1n(c2=O)Cc2cc3c(CN4CCN(C)CC4)c(OC(=O)N4CCN(CCCCCCN(C)c5ccc([C@H]6C[C@@]7(C)[C@@H](CC[C@]7(OC(C)=O)C(C)=O)[C@@H]7CCC8=CC(=O)CCC8=C76)cc5)CC4)ccc3nc2-1 [Compound 5, (S)-4-Ethyl-4-hydroxy-10-((4-methylpiperazin-1-yl)methyl)-3,14-dioxo-3,4,12,14-tetrahydro-1H-pyrano[3′,4′:6,7]indolizino[1,2-b]quinolin-9-yl 4-(6-((4-((8S,11R,13S,14S,17R)-17-acetoxy-17-acetyl-13-methyl-3-oxo-2,3,6,7,8,11,12,13,14,15,16,17-dodecahydro-1H-cyclopenta[a]phenanthren-11-yl)phenyl)(methyl)amino)hexyl)piperazine-1-carboxylate] | > 1000 nM | a (IC50 =< 10 nM) | 101 to 1000 nM | 10 to 100 nM | < 10 nM | < 10 nM | 101 to 1000 nM | 10 to 100 nM | – | –
CC[C@@]1(O)C(=O)OCc2c1cc1n(c2=O)Cc2cc3c(CN(C)C)c(OC(=O)N4CCN(C(=O)[C@H](CCCNC(N)=O)NC(=O)[C@@H](NCCCCCCN(C)c5ccc([C@H]6C[C@@]7(C)[C@@H](CC[C@]7(OC(C)=O)C(C)=O)[C@@H]7CCC8=CC(=O)CCC8=C76)cc5)C(C)C)CC4)ccc3nc2-1 [Compound 39, (S)-10-((dimethylamino)methyl)-4-ethyl-4-hydroxy-3,14-dioxo-3,4,12,14-tetrahydro-1H-pyrano[3′,4′:6,7]indolizino[1,2-b]quinolin-9-yl 4-((S)-2-((S)-2-((6-((4-((8S,11R,13S,14S,17R)-17-acetoxy-17-acetyl-13-methyl-3-oxo-2,3,6,7,8,11,12,13,14,15,16,17-dodecahydro-1H-cyclopenta[a]phenanthren-11-yl)phenyl)(methyl)amino)hexyl)amino)-3-methylbutanamido)-5-ureidopentanoyl)piperazine-1-carboxylate] | > 1000 nM | – | 101 to 1000 nM | 101 to 1000 nM | < 10 nM | – | – | 10 to 100 nM | > 1000 nM | 101 to 1000 nM
